The values that follow come from patent US7795215B2, “MNTF peptides and compositions and methods of use” (Genervon Biopharmaceuticals LLC, priority 2003, dated 2010).

One test has as its system rat femoral nerve. In words: Femoral nerve model, MNTF pump experiments (Preferential Motor Reinnervation). The format is in vivo. The following applies: 10^−4 M, 10^−5 M and 10^−6 M; FIG. 5; vs saline controls. As to the method: The specificity of motor axon regeneration was investigated in the rat femoral nerve. Proximally, at the site of nerve transection and suture, axons that contribute to both cutaneous and muscle branches intermingle throughout the nerve. As these axons regenerate, they have equal access to neighboring motor and sensory Schwann cell tubes in the distal nerve stump. This assures an element of “choice” at the axonal level. Distally, where the specificity of regeneration is assessed, axons are segregated into terminal cutaneous and muscle branches. Motor axons are normally found only in the muscle branch, so any motor reinnervation of the cutaneous branch represents a pathfinding failure. The specificity of axon regeneration is evaluated by simultaneous application of horseradish peroxidase (HRP) to one distal femoral branch and fluoro-gold (FG) to the other. Motor-axon regeneration is random at 3 weeks, but the number of correct projections to muscle increases dramatically at later times. Many neurons initially contain both tracers, and thus project collaterals to both cutaneous and muscle branches. The number of these double-labeled neurons decreases with time. Motor axon collaterals are thus pruned from the cutaneous branch, increasing the number of correct projections to muscle at the expense of double-labeled neurons. A specific interaction thus occurs between regenerating motor axons and muscle and/or muscle nerve that we have termed Preferential Motor Reinnervation (PMR).
In preliminary experiments we attempted to modify motor axon regeneration in the femoral nerve by pumping MNTF 33mer at 10^−4 M onto the repair site, using an Alzet osmotic pump which discharges for at least 2 weeks. The output of the pump was sewn to muscle adjacent to the nerve repair, so that the nerve wound would be continuously bathed with the factor. Reinnervation of the distal femoral cutaneous and muscle branches was quantified with tracers as described above.
In a follow-up experiment MNTF 33mer was administered to eight transected and sutured rat femoral nerves at 10^−4 M, essentially as described above. Controls were a group of six nerves that underwent routine suture with pumps delivering saline but no MNTF. A mean of 100 motoneurons projected correctly in the six controls, whereas a mean of 87 motoneurons projected incorrectly to skin.
To determine if a truncated MNTF peptide could be substituted for MNTF 33mer, subsequent experiments were performed, essentially as described above, using the MNTF 6mer FSRYAR, at 10^−4 M (n=8), 10^−5 M (n=8) and 10^−6 M (n=8), with a total of 22 saline controls for comparison. […] Thus the 6mer is capable of promoting selective reinnervation of target muscles in a manner similar to the MNTF1 33mer.

Test [1] concerns VSC4.1 cells, a motor neuron/neuroblastoma cell hybrid. In words: VSC4.1 cell proliferation assay (BrdU). Format: cell-based. The conditions noted are these: for Biological Function / OD (optimal dose): VSC4.1 proliferation. As to the method: Studies of proliferation were performed in 96 well plates utilizing a cell proliferation assay kit from Roche Diagnostics GmbH (Mannheim, Germany). VSC4.1 cells, a motor neuron/neuroblastoma cell hybrid, were cultured in DMEM with 2% FBS containing either no MNTF or a dose range of MNTF from 10^−8 to 10^−5 g/ml. Each treatment was applied in triplicate wells. The cells were cultured for 21 hours and 5-bromo-2′-deoxyuridine (BrdU) from the assay kit was added to each well. After BrdU labeling for 3 hours, the cells were washed, fixed and dried. The cells were then fixed and the DNA denatured to improve access for the subsequent antibody binding. POD-labeled mouse monoclonal anti-BrdU antibody from the assay kit was applied for 2 hours, followed by a wash. The assay was quantitated by adding the colorimetric assay solution (tetramethyl benzidine) and reading at 450 nm on a Wallac Vector 2 plate reader. Cells in the treatment groups were quantitated by comparing to wells plated with a gradient of cells from 0 to 20,000 cells/well on the same plate. Data is expressed as % of control to allow for variability from plate to plate.
Additional cell proliferation assays, conducted essentially as described above, were performed to compare the effects of several GLP grade MNTF peptides.
Further cell proliferation studies were performed, essentially as described above, to test the response of the motor neuron/neuroblastoma cells to three new preparations of MNTF. The MNTF preparations utilized for these assays were: […]

“Also recorded” adds a separate entry of the source. Where no end group is shown, it is not given here.

Consider FSRYAR [6mer], for which, in the test with rat femoral nerve, the “correct projections” value was “significant increases in correct projections at every dose tested” and the “incorrect projections to skin” value is recorded as “marked reductions in the number of incorrect projections to skin”. In test [1] (assay set Mar. 28, 2003), the “Biological Function” value is given as “Effective” and the “OD (optimal dose)” value stood at 1 µg/mL. Besides, in test [1] (assay set Oct. 27, 2002), the “Biological Function” value is reported as “Effective” and the “OD (optimal dose)” value turned out to be 10 µg/mL. Also, in test [1] (earliest studies, FIG. 2), the “dose of maximal response” value stood at 10 µg/mL and the “relative effectiveness in proliferation assay (words)” value is recorded as “comparably effective”. The “maximal increase in cell proliferation” value in test [1] (earliest studies, FIG. 2, % increase over control) was 35.1%. For the same substance, the “effect on proliferation of motor neuron/neuroblastoma cells (summary in description)” value in test [1] (in vitro) was “sufficient to increase cell proliferation of motor neuron/neuroblastoma cells”. Also, the “relative effectiveness in proliferation assay (words)” value in test [1] (second set, FIG. 3) is given as “poorest performers; also recorded: less effectively than the others”. Also, the “fold increase in proliferation” value in test [1] (second set, FIG. 3, at 1 μg/ml) is on record as roughly 2.5 fold.
